Measured values: patent US20040023953A1, “Tricylic mercaptomethyl-substituted 2,3-dihydro-quinazolin-5-ones and 2,3-dihydro-benzo-[1,2,4]-thiadiazin-5,5-dioxides as matrix metalloproteinase (MMP) inhibitors” (priority 2000, published 2004)

Key:
Assay type in all cases: biochemical
[1] = biological target: T1, MT1-MMP (recombinant catalytic domain of MMP-14) (Homo sapiens, UniProt P50281); test: Quantitative fluorescence assay, inhibition of MT1-MMP; conditions: for Ki: DIXON method
T1 construct: recombinant catalytic domain of MMP-14
From the text: In particular when used as medicaments, specific inhibitors would only influence the desired target enzymes but not disturb the balanced interplay of the other MMPs, thus helping to avoid possible undesired side-effects.
(§1) Quantitative Fluorescence Assay for Matrix Metalloproteinases
(§2) The fluorescent group Mca is separated from the internal quencher Dpa by enzymatic cleavage of the synthetic substrate Mca-Pro-Leu-Gly-Leu-Dpa-Ala-Arg-NH2 using the respective collagenase. This is accompanied by a great increase in fluorescence in the measuring batch, which can be quantified using a fluorimeter (λex 328 nm, λem 393 nm) and proceeds linearly within the first few minutes. A certain specificity of the test to matrix metalloproteinases follows from the amino acid sequence-Pro-Leu-Gly-Leu-in the substrate, on the one hand, and from the select incubation conditions, on the other hand. Matrix metalloproteinases cleave the substrate at the Gly-Leu bond. The proteolytic residual activity of pre-incubated batches of enzyme and inhibitor is measured, the substrate and enzyme concentrations having been kept constant and the inhibitor concentration having been varied. Three series of measurements using a different substrate concentration were made for each tested inhibitor. The enzyme activity is calculated in fluorescence units per min. on the basis of the time-sensitive fluorescence increase. The Ki values were determined graphically according to the DIXON method (1953) by applying the reciprocal reaction rate 1/v (y axis) against inhibitor concentration (x axis).
(§3) Inhibition of human MMPs by the inhibitors of general formulae Ia and Ib according to the invention

MMP-2 (gelatinase) = biological target: T2, MMP-2 (gelatinase) (Homo sapiens, UniProt P08253); test: Quantitative fluorescence assay, inhibition of MMP-2; conditions: 10 μM inhibitor; no explicit Ki value since the dixon plot is non-linear
T2 construct: endogenous in cells; host or cells: human dermal fibroblasts (secreted into culture medium)
T2 sequence (P08253 110-660): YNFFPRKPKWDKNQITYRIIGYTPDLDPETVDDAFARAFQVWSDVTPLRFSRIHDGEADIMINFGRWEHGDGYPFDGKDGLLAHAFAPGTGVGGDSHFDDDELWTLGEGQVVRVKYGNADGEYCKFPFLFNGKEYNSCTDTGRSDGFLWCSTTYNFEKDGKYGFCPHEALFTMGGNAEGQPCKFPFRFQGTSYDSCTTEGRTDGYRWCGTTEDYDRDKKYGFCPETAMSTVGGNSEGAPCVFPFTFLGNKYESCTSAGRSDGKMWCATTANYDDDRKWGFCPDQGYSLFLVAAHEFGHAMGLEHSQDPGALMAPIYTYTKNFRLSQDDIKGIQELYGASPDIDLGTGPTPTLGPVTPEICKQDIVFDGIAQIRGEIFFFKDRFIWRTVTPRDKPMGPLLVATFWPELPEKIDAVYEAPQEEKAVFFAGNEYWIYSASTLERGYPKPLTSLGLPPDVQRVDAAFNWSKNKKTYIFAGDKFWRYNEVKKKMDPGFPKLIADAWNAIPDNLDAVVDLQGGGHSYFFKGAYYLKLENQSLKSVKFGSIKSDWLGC
Procedure: Inhibition of the Matrix Metalloproteinase-2 (MMP-2)
MMP-2 (gelatinase) is supplied by cultivated dermal fibroblasts to the culture medium in considerable amounts and is thus easily accessible.
For this purpose, human dermal fibroblasts are obtained according to established standard methods and cultivated and the cell-free culture supernatant is treated with trypsin. Trypsin is then inactivated with a specific inhibitor (TLCK) and active MMP-2 is partially purified by affinity chromatography on gelatin sepharose and subsequent gel filtration on sepharose. MMP-2 was identified and characterized by the availability of a commercial immunoassay.
as §1, §2
(§4) 2 μl inhibitor dissolved in DMSO, or DMSO alone (non-inhibitory approach) 4 μl enzyme (MMP-2 or MMP-9 or catalytic domain of MMP-8)
(§5) 5 min. preliminary incubation of the enzyme-inhibitor mixture at room temperature while stirring start of the reaction with 10 μl substrate dissolved in DMSO recording of the time-sensitive fluorescence increase over a period of 2 min.
as §3

[2] = biological target: T3, recombinant catalytic domain of MMP-8 (Homo sapiens, UniProt P22894); test: Quantitative fluorescence assay, inhibition of catalytic domain of MMP-8; conditions: for MMP-8 inhibition with 10 μM: 10 μM inhibitor, no explicit Ki value since the dixon plot is non-linear
T3 construct: instead of the whole enzyme only its enzymatically active catalytic domain was cloned into E. coli; made in house; host or cells: E. coli
From the text: Cloning and Expression of the Catalytic MMP-8 Domain
The catalytic MMP-8 domain was used as another test enzyme because it has a high degree of stability and is also available as an active enzyme and therefore needs not be activated, which is in consideration as one of the most frequent causes of error since the mercury compounds used for the activation often interfere with the test system and/or the enzyme and in this way can falsify the measuring results. The cloning strategy was directed towards the circumstance that instead of the whole enzyme only its enzymatically active catalytic domain was cloned into E. coli.
The cloning and expression of the recombinant catalytic MMP-8 domain was carried out in accordance with the statements made by SCHNIERER et al. (Schnierer S., Kleine T., Gote T., Hillemann A., Knäuper V., Tschesche H.: The recombinant catalytic domain of human neutrophil collagenase lacks type I collagen substrate specificity. Biochem Biophys Res Comm (1993), vol. 191, No. 2, 319-326).
as §1, §2, §4, §5, §3

MMP-9 = biological target: T4, MMP-9 (Homo sapiens, UniProt P14780); test: Quantitative fluorescence assay, inhibition of MMP-9; conditions: for Ki: DIXON method; for MMP-9 inhibition with 10 μM: 10 μM inhibitor, no explicit Ki value since the dixon plot is non-linear
T4 construct: from tissue; host or cells: human buffy coat (blood leukocytes)
Procedure: Preparation of the Human Collagenase MMP-9
Native MMP-9 was obtained reproducibly and with good yield and purity from human Buffy Coat. For this purpose, Buffy Coat is brought to a final concentration of 0,4% using 10% (v/v) triton X-100, shaken on ice for 30 min. and then 1 vol. double binding buffer (40 mM Tris-HCl, pH 7.5, 10 mM CaCl2, 1 M NaCl, 0.2% (v/v) triton X-100) is added and shaking on ice is continued for another 30 min.
The solution is centrifuged off at 16,000 rpm on an SS-34 rotor at 4° C. for 15 min. and filtered on glass wool. The filtrate is batched with gelatin agarose equilibrated with binding buffer and shaken on ice for 1 hour.
The charged gelatin agarose is transferred to a column and rinsed in protein-free manner using at least 10 vol. binding buffer. The bound MMP-9 is eluted with 2 gel volumes binding buffer plus 5% (v/v) DMSO.
For an exchange of buffers and simultaneous separation of minor MMP-2 contaminations the eluate can be separated on sephadex G-75 by means of gel filtration. Buffer I (20 mM Tris-HCl, pH 7.5, 5 mM CaCl2, 100mM NaCl, 0.1% (v/v) triton X-100) is used for this purpose.
The resulting eluate contains MMP-9 in the three known configurations: monomer, homodimer, heterodimer. The purity of the enzyme is about 90%, the rest of the foreign proteins being fibronectin and extremely small amounts of TIMPs.
The latent enzyme is activated by incubation at 37° C. using 1/100 vol. trypsin (10 mg/ml), for 30-60 min. Trypsin is inhibited by adding 1 mM PMSF or with a specific inhibitor (TLCK).
as §1
as §2, with “A certain specificity of the test to matrix metalloproteinases follows from the amino acid sequence-Pro-Leu-Gly-Leu-in the substrate, on the one hand, and from the select incubation conditions, on the other hand. Matrix metalloproteinases cleave the substrate at the Gly-Leu bond.” left out, “Three series of measurements using a different substrate concentration were made for each tested inhibitor.” left out, “axis). […]” for “axis).”
5 min. preliminary incubation of the enzyme-inhibitor mixture at room temperature while stirring start of the reaction with 10 μl substrate dissolved in DMSO recording of the time-sensitive fluorescence increase over a period of 2 min. […]

T3 sequence (P22894 100-262 limits assumed): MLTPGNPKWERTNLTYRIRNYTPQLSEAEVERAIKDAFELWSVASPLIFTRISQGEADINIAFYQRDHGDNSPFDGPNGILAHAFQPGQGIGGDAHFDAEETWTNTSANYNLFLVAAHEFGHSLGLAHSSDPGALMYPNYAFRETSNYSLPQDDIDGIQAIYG
T4 sequence (P14780 107-707 limits assumed): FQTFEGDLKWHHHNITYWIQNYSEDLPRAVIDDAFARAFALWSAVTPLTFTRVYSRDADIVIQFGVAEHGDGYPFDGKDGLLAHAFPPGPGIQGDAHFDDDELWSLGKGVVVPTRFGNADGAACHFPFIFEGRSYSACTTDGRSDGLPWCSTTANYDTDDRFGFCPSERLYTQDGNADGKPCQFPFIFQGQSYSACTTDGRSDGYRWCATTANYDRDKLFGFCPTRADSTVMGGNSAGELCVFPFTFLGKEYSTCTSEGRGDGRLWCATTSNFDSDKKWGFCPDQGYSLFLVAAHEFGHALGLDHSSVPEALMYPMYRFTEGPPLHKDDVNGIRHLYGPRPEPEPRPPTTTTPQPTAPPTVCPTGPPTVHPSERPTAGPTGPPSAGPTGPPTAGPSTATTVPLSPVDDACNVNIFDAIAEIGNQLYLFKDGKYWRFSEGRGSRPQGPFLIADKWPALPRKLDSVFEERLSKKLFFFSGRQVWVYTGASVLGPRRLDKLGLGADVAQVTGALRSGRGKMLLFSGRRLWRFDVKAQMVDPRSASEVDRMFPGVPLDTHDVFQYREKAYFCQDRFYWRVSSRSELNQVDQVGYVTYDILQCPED

Structure (SMILES) | Ki [1] | MMP-2 inhibition with 10 μM (MMP-2 (gelatinase)) | Ki ([2]; DIXON method) | Ki (MMP-9) | MMP-8 inhibition with 10 μM [2] | MMP-9 inhibition with 10 μM (MMP-9) | MT1-MMP inhibition with 10 μM ([1]; 10 μM inhibitor, no explicit Ki value since the dixon plot is non-linear) | MT1-MMP inhibition with 2.5 μM ([1]; 2.5 μM inhibitor, no explicit Ki value since the dixon plot is non-linear)
O=C(O)c1ccc2c(=O)n3c(nc2c1)S[C@@H](CS)C3 (racemic) [Example 3, (R,S)-8-carboxy-2-mercaptomethyl-2,3-dihydro-5H-thiazolo [2,3-b]quinazoline-5-one] | 21 µM | 25% | 24 µM | 15 µM | – | – | – | –
O=c1c2ccccc2nc2n1[C@H](CS)CS2 (racemic) [Example 4, (R,S)-3-mercaptomethyl-2,3-dihydro-5H-thiazolo[2,3-b]quinazoline-5-one] | 55 µM | 50% | – | – | 25% | 75% | – | –
O=c1c2ccc(Cl)cc2nc2n1C[C@H](CS)S2 (racemic) [Example 5, (R,S)-8-chloro-2-mercaptomethyl-2,3-dihydro-5H-thiazolo(2,3-b]quinazoline-5-one] | – | 80% | – | – | 90% | 85% | 85% | –
C[C@]1(CS)Cn2c(nc3ccccc3c2=O)S1 (racemic) [Example 2, (R,S)-2-mercaptomethyl-2-methyl-2,3-dihydro-5H-thiazolo[2,3-b]quinazoline-5-one] | 4 µM | 50% | – | 1 µM | 85% | – | – | –
O=c1c2ccccc2nc2n1C[C@H](CS)S2 (racemic) [Example 1, (R,S)-2-Mercaptomethyl-2,3-dihydro-5H-thiazolo(2,3-b]-quinazoline-5-one] | – | 70% | – | – | 80% | – | – | 50% inhi-
